This is an account of results in ChEMBL document CHEMBL4699511, “Cedrol, a Sesquiterpene Alcohol, Enhances the Anticancer Efficacy of Temozolomide in Attenuating Drug Resistance via Regulation of the DNA Damage Response and MGMT Expression” (J Nat Prod, 2020).

In data set [1] the test system is RG2. Description: Induction of cell cycle arrest in rat RG2 cells assessed as accumulation at G0/G1 phase at 112.4 uM after 6 hrs in presence of TMZ by propidium iodide staining based flow cytometric analysis (reference value: 57.81 +/- 1.9%). Format: functional. On the technique in general: A flow cytometer gives signals particle by particle.
Data set [2] can be described thus: Synergistic cytotoxicity against rat CTX TNA2 cells assessed as combination index at 89.9 uM after 48 hrs in presence of 309 uM TMZ by MTT assay. Type of data set: cell-based. The note with it: ctx tna2, 48 h.
The subject of data set [3] is DBTRG-05MG. Description: Induction of DNA damage in human DBTRG-05MG cells assessed as Chk2 phosphorylation at Thr68 residues at 112.4 uM after 48 hrs in presence of TMZ by Western blot analysis (reference value: 1). Type of data set: functional. (In general: Immunoblotting shows a protein as a band on a membrane.)
The subject of data set [4] is RG2. Description: Induction of apoptosis in rat RG2 cells assessed as cleaved caspace-3 expression at 112.4 uM after 48 hrs in presence of TMZ by Western blot analysis (reference value: 1). Type of data set: functional.
For data set [5], the system named is RG2. Description: Induction of cell cycle arrest in rat RG2 cells assessed as accumulation at G2/M phase at 112.4 uM after 24 hrs in presence of TMZ by propidium iodide staining based flow cytometric analysis (reference value: 20.04 +/- 0.55%). Type of data set: functional.
The subject of data set [6] is RG2. Kind of data set: Induction of DNA damage in rat RG2 cells assessed as Chk2 phosphorylation at Thr68 at 112.4 uM after 48 hrs in presence of TMZ by Western blot analysis (reference value: 1). Type of data set: functional.
Data set [7] deals with MAP kinase p38 (Homo sapiens) (UniProt O15264+Q15759+Q16539+P53778). Kind of data set: Inhibition of p38 phosphorylation at Tyr182 residues in human DBTRG-05MG cells at 112.4uM after 48 hrs in presence of TMZ by Western blot analysis (reference value: 1). Type of data set: cell-based.
Data set [8] relates to RG2. Kind of data set: Induction of cell cycle arrest in rat RG2 cells assessed as accumulation at S phase at 112.4 uM after 24 hrs in presence of TMZ by propidium iodide staining based flow cytometric analysis (reference value: 20.15 +/- 2.44%). Type of data set: functional.
In data set [9] the test system is RG2. Kind of data set: Induction of cell cycle arrest in rat RG2 cells assessed as CDK2 expression at 112.4uM after 48 hrs by Western blot analysis (reference value: 1). Type of data set: functional.
The test system of data set [10] is DBTRG-05MG. Kind of data set: Induction of apoptosis in human DBTRG-05MG cells assessed as phosphorylated caspace-9 expression at 112.4 uM after 48 hrs in presence of TMZ by Western blot analysis (reference value: 1). Type of data set: functional.
Data set [11] deals with RG2. Description: Synergistic cytotoxicity against rat RG2 cells assessed as combination index at 89.9 uM after 48 hrs in presence of 515.1 uM TMZ by MTT assay. Type of data set: functional.
For data set [12], the system named is DBTRG-05MG. Description: Antitumour activity against human DBTRG-05MG cells xenografted in BALB/c nude mouse assessed as increase in survival time at 75 mg/kg, sc for every 2 days for 20 days and measured every 2 days. The note with it: time 20.0 day. Format: functional, organism-based.
Data set [13] has as its system DBTRG-05MG. Description: Induction of cell cycle arrest in human DBTRG-05MG cells assessed as CDK2 expression at 112.4uM after 48 hrs in presence of TMZ by Western blot analysis (reference value: 1). Format: functional.
Data set [14] concerns RG2. Description: Induction of cell cycle arrest in rat RG2 cells assessed as CyclinA expression at 112.4 uM after 48 hrs in presence of TMZ by Western blot analysis (reference value: 1). Format: functional.
The subject of data set [15] is DBTRG-05MG. Description: Synergistic cytotoxicity against human DBTRG-05MG cells assessed as synergistic effect index at 134.9 uM after 48 hrs in presence of 206 uM TMZ by MTT assay. Format: functional. (In general: Formazan colour is commonly taken as a measure of viable cells.)
Data set [16] in a line: Effect on ERK expression in rat RG2 cells at 112.4uM after 48 hrs in presence of TMZ by Western blot analysis (reference value: 1). Format: functional.
Data set [17] relates to RG2. Description: Synergistic cytotoxicity against rat RG2 cells assessed as synergistic effect index at 89.9 uM after 48 hrs in presence of 515.1 uM TMZ by MTT assay. Type of data set: functional.
The subject of data set [18] is RG2. Kind of data set: Synergistic cytotoxicity against rat RG2 cells assessed as synergistic effect index at 112.4 uM after 48 hrs in presence of 206 uM TMZ by MTT assay. Format: functional.
Data set [19] deals with DBTRG-05MG. Description: Induction of cell cycle arrest in human DBTRG-05MG cells assessed as accumulation at G2/M phase at 112.4 uM after 12 hrs in presence of TMZ by propidium iodide staining based flow cytometric analysis (reference value: 30.08 +/- 0.1%). Type of data set: functional.
The subject of data set [20] is RG2. Description: Induction of cell cycle arrest in rat RG2 cells assessed as accumulation at S phase at 112.4 uM after 48 hrs by propidium iodide staining based flow cytometric analysis (reference value: 20.15 +/- 2.44%). Format: functional.
For data set [21], the system named is DBTRG-05MG. Description: Synergistic cytotoxicity against human DBTRG-05MG cells assessed as synergistic effect index at 134.9 uM after 48 hrs in presence of 412.1 uM TMZ by MTT assay. Type of data set: functional.
Data set [22] relates to RG2. Description: Induction of cell cycle arrest in rat RG2 cells assessed as accumulation at G2/M phase at 112.4 uM after 24 hrs by propidium iodide staining based flow cytometric analysis (reference value: 20.04 +/- 0.55%). Format: functional.
Data set [23] concerns DBTRG-05MG. Kind of data set: Synergistic cytotoxicity against human DBTRG-05MG cells assessed as combination index at 134.9 uM after 48 hrs in presence of 103 uM TMZ by MTT assay. Format: functional.
The subject of data set [24] is DBTRG-05MG. Description: Induction of cell cycle arrest in human DBTRG-05MG cells assessed as accumulation at G2/M phase at 112.4 uM after 6 hrs by propidium iodide staining based flow cytometric analysis (reference value: 30.08 +/- 0.1%). Type of data set: functional.
The test system of data set [25] is DBTRG-05MG. Description: Antitumour activity against human DBTRG-05MG cells xenografted in BALB/c nude mouse assessed as reduction in tumour growth at 75 mg/kg, sc for every 2 days for 20 days and measured every 2 days. Type of data set: functional, organism-based. The note with it: time 20.0 day.
Data set [26] concerns DBTRG-05MG. Description: Synergistic cytotoxicity against human DBTRG-05MG cells assessed as combination index at 112.4 uM after 48 hrs in presence of 309 uM TMZ by MTT assay. Format: functional.
The subject of data set [27] is RG2. Description: Synergistic cytotoxicity against rat RG2 cells assessed as synergistic effect index at 112.4 uM after 48 hrs in presence of 412.1 uM TMZ by MTT assay. Format: functional.
Data set [28] relates to DBTRG-05MG. Description: Synergistic cytotoxicity against human DBTRG-05MG cells assessed as synergistic effect index at 89.9 uM after 48 hrs in presence of 515.1 uM TMZ by MTT assay. Format: functional.
In data set [29] the test system is RG2. Kind of data set: Induction of apoptosis in rat RG2 cells assessed as increase in DNA fragmentation at 206 uM after 48 hrs by TUNEL assay. Type of data set: functional, cell-based.
Data set [30] is described as follows: Effect on AKT expression in human DBTRG-05MG cells at 206 uM after 48 hrs by Western blot analysis (reference value: 1). Format: functional.
The subject of data set [31] is DBTRG-05MG. Description: Induction of cell cycle arrest in human DBTRG-05MG cells assessed as accumulation at S phase at 206 uM after 12 hrs by propidium iodide staining based flow cytometric analysis (reference value: 22.76 +/- 1.56%). Format: functional.
Data set [32] concerns RG2. Kind of data set: Induction of cell cycle arrest in rat RG2 cells assessed as accumulation at G0/G1 phase at 206 uM after 6 hrs by propidium iodide staining based flow cytometric analysis (reference value: 57.81 +/- 1.9%). Format: functional.

Active and inactive are the calls of the source. No cut-off for these calls is given here.

In the case of `C[C@@H]1CC[C@H]2C(C)(C)[C@H]3C[C@@]12CC[C@@]3(C)O` [CEDROL], the Activity is recorded as 61.59% in data set [1]; 26.19% in [5]; 11.96% in data set [8]; 33.68% in [19]; 16.62% in data set [20]; 18.42% in data set [22]. The Activity in [24] was 30.35%. Further, the CI in [2] is reported as 1.13; in data set [11], 1.38; in data set [23], 0.64; in data set [26] it was 0.57. For the same molecule, the “fold change (FC)” value is 2.6 in data set [3]; 3.3 in data set [4]; 1.6 in data set [6]; 1.2 in [7]; 0.7 in data set [9]; 0.4 in [10]. Moreover, the “fold change (FC)” value in data set [13], in data set [14] and in data set [16] was 0.7 each time. Further, the result in data set [12] and in [25] was Active. In addition, the Activity_index amounted to 0.88 in data set [15]; 0.69 in data set [17]; 0.87 in data set [18]; 0.9 in [21]; 0.84 in [27]; 0.77 in [28].
For `Cn1nnc2c(C(N)=O)ncn2c1=O` [TEMOZOLOMIDE], the result in data set [29] was Active. Besides, in [30], the “fold change (FC)” value amounted to 1. Further, the Activity came to 22.29% in data set [31] and 54.73% in data set [32].
